Patent US20100196326A1, “METHOD AND SYSTEM FOR BIASING CELLULAR DEVELOPMENT” (priority 2004, published 2010)
“Also recorded” adds a separate entry of the source.

Tests used:
Type in all cases: cell-based, human
NT2/D1 cells [1] = experiment: cell viability assay (trypan blue) and DNA fragmentation analysis after STS treatment
Protocol: (§1) The NT2/D1 cells were seeded (5×10^6 cells per 10 cm Petri dish) in Dulbecco's modified Eagle's medium (DMEM/F-12; Invitrogen) supplemented with 10% heat inactivated fetal bovine serum (FBS; Invitrogen), 0.4 μl/ml penicillin-streptomycin (Invitrogen), and 4 mM glutamine (Invitrogen) and maintained in a humidified atmosphere of 5% CO2/95% air at 37° C. For astrocytic differentiation, 1×10^6 cells were seeded in a 6 well plate and treated three times a week for 3 weeks with 40 nM STS (Sigma). Cells were split twice a week by short exposure to trypsin/EDTA (Invitrogen). Subsequently, these NT2/A cells were evaluated for expression of astrocytic markers and […] by RT-PCR and western blot analysis. After incubation with a different time and concentration of STS, cells were trypsinized and viable cells were counted with a hemocytometer using trypan blue exclusive assay.

NT2/D1 cells [2] = experiment: STS-induced astrocytic differentiation, morphology by microscopy; details: 40 nM STS
Protocol: as §1
Typical fluorescent microscopic pictures of the transfected cell were taken 48 hr after the transfection in a 8 well chamber slides. The cells expressing EGFP were detected by green fluorescence.

NT2/D1 cells [3] = experiment: RT-PCR of astrocyte specific and APP gene expression in treated NT2 cells
Protocol: as §1
Total RNA was extracted from the cells and 1 μg of the RNA was reverse-transcribed and amplified using the SuperScript™ ONE STEP™ RT-PCR System (Invitrogen) with the following primers.

CN[C@@H]1C[C@H]2O[C@@](C)([C@@H]1OC)n1c3ccccc3c3c4c(c5c6ccccc6n2c5c31)C(=O)NC4 [STS, Staurosporine]
start of mass cell death (NT2/D1 cells [1]; 40 nM STS): 8 h
cell viability and DNA fragmentation (NT2/D1 cells [1]; STS treatment): cell death
induction of NT2/A cells (astrocytic morphology) (NT2/D1 cells [2]): induced NT2/A cells; also recorded: induces morphological and functional differentiation
astrocyte specific gene expression (GFAP, LIF, Delta, Jagged-1, BMP-2, 4, BMP-7, GLT-1/EAAT-2, GLAST/EAAT-1) (NT2/D1 cells [3]; 40 nM STS, RT-PCR): induced astrocyte specific gene expression
APP gene expression (NT2/D1 cells [3]; during STS-induced astro-gliogenesis): increased in time-dependent manner; also recorded: higher expression level
